Values of other authors as cited in patent publication US11638700B2, “Iron/shikonin nano-composite and use thereof and method for preparing the same by supermolecular self-assembly” (Jilin University, priority 2020, dated 2023).

Settings: generally considered

## CC(C)=CC[C@@H](O)C1=CC(=O)c2c(O)ccc(O)c2C1=O [shikonin]
  solubility of shikonin in water: insoluble in water
